T1: E7 oncoprotein of HPV-16 expressed in Escherichia coli as a fusion protein to Glutathione S-Transferase (Human Papillomavirus (HPV)-16, UniProt P03129 1-98)
T1 sequence: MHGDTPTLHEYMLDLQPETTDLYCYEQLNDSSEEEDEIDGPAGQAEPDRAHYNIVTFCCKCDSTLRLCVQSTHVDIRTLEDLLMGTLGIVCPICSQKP

B1: peptide D14P165 (RKRSRYWP) (peptide)
peptide: RKRSRYWP
B2: peptide D15P105 (RKRWRYWP) (peptide)
peptide: RKRWRYWP

Where a SMILES comes first, the peptide text is derived from it. [ ]: non-standard residue; d: D form. βAla = NCCC(=O)O

The source of these data is US20240317827A1, “LINEAR PEPTIDES INHIBITING CK2-MEDIATED PHOSPHORYLATION AND COMPOSITIONS COMPRISING SAME” (CENTRO DE INGENIERÍA GENÉTICA Y BIOTECNOLOGÍA, priority 2021, published 2024).

As a reminder, the IC50 is the concentration at which inhibition is half-maximal.

One assay deals with NCI-H125 cell line (non-small cell lung cancer). Briefly: cell proliferation assay, NCI-H125 line. Format: cell-based. The note with it: NCI-H125, Table 5; read-out: IC50. The procedure:
The evaluation of the antiproliferative activity of polypeptides F11P13-F11P21 (SEQ ID NO: 12-SEQ ID NO: 20) was performed on the NCI-H125 cell line. […] The antiproliferative effect of the CIGB-300 peptide has been widely characterized in this line (Cirigliano S. M., et al., 2017, Cancer Cell International, 17, 42), therefore, it was selected as a positive control. Tat peptide was used as a negative control. The polypeptides were evaluated at the concentrations of 25, 50, 100 and 200 μM. The cell proliferation assay was performed by a previously described procedure (Perera Y., et al., 2012, J. Pept. Sci, 18 (4):215-23).
The 24 polypeptides identified as SEQ ID NO: 21-SEQ ID NO: 44 maintained the ability to inhibit the phosphorylation of the E7 protein of HPV-16, mediated by CK2, since phosphorylation inhibition values between 60-85% were obtained. […] Evaluation of the antiproliferative activity of synthetic polypeptides generated by positional scanning of Trp (SEQ ID NO: 21-SEQ ID NO: 44) was performed on the NCI-H125 cell line. The test was performed by the procedure previously described. (Perera Y., et al., 2012, J. Pept. Sci, 18 (4): 215-23). Precursor polypeptides (F11P19, F11P20, F11P21) and peptide CIGB-300 were included as positive controls. The polypeptides were evaluated at the concentrations of 12.5; 25; fifty; 100 and 200 μM.
The evaluation of the antiproliferative activity of synthetic polypeptides A15P35, A15P36 and A15P37 (SEQ ID NO: 46-SEQ ID NO: 48) was performed on the NCI-H125, AsPC-1, PanC-1 (pancreatic carcinoma) and OCI-AML3 (acute myeloid leukemia-3) cell lines. The test was carried out according to the procedure previously described (Perera Y, et al., 2012, J. Pept. Sci, 18 (4):215-23). […] The polypeptides A15P35, A15P36 and A15P37 were able to produce a dose-dependent effect on the proliferation of NCI-H125 cells.
Antiproliferative assays were performed on the NCI-H125, Hep2C (laryngeal carcinoma) cell lines, and on two bladder cancer lines (MGH-U3 and MGH-U4). The test was carried out according to the procedure previously described (Perera Y., et al, 2012, Pept. Sci, 18 (4):215-23).
Regarding `N=C(N)NCCC[C@H](NC(=O)CN)C(=O)N[C@@H](CCCCN)C(=O)N[C@@H](CCCCN)C(=O)N[C@@H](CCCNC(=N)N)C(=O)N[C@@H](CCCNC(=N)N)C(=O)N[C@@H](CCC(N)=O)C(=O)N[C@@H](CCCNC(=N)N)C(=O)N[C@@H](CCCNC(=N)N)C(=O)N[C@@H](CCCNC(=N)N)C(=O)N1CCC[C@H]1C(=O)N1CCC[C@H]1C(=O)N[C@@H](CCC(N)=O)C(=O)NCCC(=O)N[C@@H](Cc1c[nH]c2ccccc12)C(=O)N[C@@H](Cc1ccc(O)cc1)C(=O)N[C@@H](CCCNC(=N)N)C(=O)N[C@@H](Cc1ccc(O)cc1)C(=O)N[C@@H](CCCCN)C(=O)N[C@@H](CCCNC(=N)N)C(=O)N[C@@H](CC(=O)O)C(=O)N1CCC[C@H]1C(N)=O` [A14P27, GRKKRRQRRRPPQ-βA-WYRYKRDP] (H-GRKKRRQRRRPPQ[βAla]WYRYKRDP-NH2; N-terminus and C-terminus assumed), the concentration for half-maximal inhibition (IC50) worked out at 165 µM.
Same read-out and setting: the same measure for `N=C(N)NCCC[C@H](NC(=O)CN)C(=O)N[C@@H](CCCCN)C(=O)N[C@@H](CCCCN)C(=O)N[C@@H](CCCNC(=N)N)C(=O)N[C@@H](CCCNC(=N)N)C(=O)N[C@@H](CCC(N)=O)C(=O)N[C@@H](CCCNC(=N)N)C(=O)N[C@@H](CCCNC(=N)N)C(=O)N[C@@H](CCCNC(=N)N)C(=O)N1CCC[C@H]1C(=O)N1CCC[C@H]1C(=O)N[C@@H](CCC(N)=O)C(=O)NCCC(=O)NCC(=O)N[C@@H](Cc1ccc(O)cc1)C(=O)N[C@@H](CCCNC(=N)N)C(=O)N[C@@H](Cc1ccc(O)cc1)C(=O)N[C@@H](Cc1c[nH]c2ccccc12)C(=O)N[C@@H](CCCNC(=N)N)C(=O)N[C@@H](CC(=O)O)C(=O)N1CCC[C@H]1C(N)=O` [A14P31, GRKKRRQRRRPPQ-βA-GYRYWRDP] (H-GRKKRRQRRRPPQ[βAla]GYRYWRDP-NH2; N-terminus and C-terminus assumed): 135 µM; for `N=C(N)NCCC[C@H](NC(=O)CN)C(=O)N[C@@H](CCCCN)C(=O)N[C@@H](CCCCN)C(=O)N[C@@H](CCCNC(=N)N)C(=O)N[C@@H](CCCNC(=N)N)C(=O)N[C@@H](CCC(N)=O)C(=O)N[C@@H](CCCNC(=N)N)C(=O)N[C@@H](CCCNC(=N)N)C(=O)N[C@@H](CCCNC(=N)N)C(=O)N1CCC[C@H]1C(=O)N1CCC[C@H]1C(=O)N[C@@H](CCC(N)=O)C(=O)NCCC(=O)NCC(=O)N[C@@H](Cc1ccc(O)cc1)C(=O)N[C@@H](CCCNC(=N)N)C(=O)N[C@@H](Cc1ccc(O)cc1)C(=O)N[C@@H](CCCCN)C(=O)N[C@@H](CCCNC(=N)N)C(=O)N[C@@H](Cc1c[nH]c2ccccc12)C(=O)N1CCC[C@H]1C(N)=O` [A14P33, GRKKRRQRRRPPQ-βA-GYRYKRWP] (H-GRKKRRQRRRPPQ[βAla]GYRYKRWP-NH2; N-terminus and C-terminus assumed): 124 µM; for `N=C(N)NCCC[C@H](NC(=O)CN)C(=O)N[C@@H](CCCCN)C(=O)N[C@@H](CCCCN)C(=O)N[C@@H](CCCNC(=N)N)C(=O)N[C@@H](CCCNC(=N)N)C(=O)N[C@@H](CCC(N)=O)C(=O)N[C@@H](CCCNC(=N)N)C(=O)N[C@@H](CCCNC(=N)N)C(=O)N[C@@H](CCCNC(=N)N)C(=O)N1CCC[C@H]1C(=O)N1CCC[C@H]1C(=O)N[C@@H](CCC(N)=O)C(=O)NCCC(=O)N[C@@H](CCCNC(=N)N)C(=O)N[C@@H](CCCCN)C(=O)N[C@@H](CCCNC(=N)N)C(=O)N[C@@H](Cc1c[nH]c2ccccc12)C(=O)N[C@@H](CCCNC(=N)N)C(=O)N[C@@H](Cc1ccc(O)cc1)C(=O)N[C@@H](CC(=O)O)C(=O)N1CCC[C@H]1C(N)=O` [A14P43, GRKKRRQRRRPPQ-βA-RKRWRYDP] (H-GRKKRRQRRRPPQ[βAla]RKRWRYDP-NH2; N-terminus and C-terminus assumed): 107 µM.
Consider `CC(C)C[C@H](NC(=O)[C@H](CCCNC(=N)N)NC(=O)[C@H](CCCNC(=N)N)NC(=O)[C@H](CCCCN)NC(=O)[C@H](CCCCN)NC(=O)[C@@H](NC(=O)CCNC(=O)[C@H](CCC(N)=O)NC(=O)[C@@H]1CCCN1C(=O)[C@@H]1CCCN1C(=O)[C@H](CCCNC(=N)N)NC(=O)[C@H](CCCNC(=N)N)NC(=O)[C@H](CCCNC(=N)N)NC(=O)[C@H](CCC(N)=O)NC(=O)[C@H](CCCNC(=N)N)NC(=O)[C@H](CCCNC(=N)N)NC(=O)[C@H](CCCCN)NC(=O)[C@H](CCCCN)NC(=O)[C@H](CCCNC(=N)N)NC(=O)CN)C(C)C)C(=O)N[C@@H](Cc1c[nH]c2ccccc12)C(=O)N1CCC[C@H]1C(N)=O` [A14P59, GRKKRRQRRRPPQ-βA-VKKRRLWP] (H-GRKKRRQRRRPPQ[βAla]VKKRRLWP-NH2; N-terminus and C-terminus assumed), for which the IC50 came to 140 µM.

Still in this assay, the particulars now being: NCI-H125; read-out: IC50 (dose-effect curves).
Regarding `N=C(N)NCCC[C@H](NC(=O)CN)C(=O)N[C@@H](CCCCN)C(=O)N[C@@H](CCCCN)C(=O)N[C@@H](CCCNC(=N)N)C(=O)N[C@@H](CCCNC(=N)N)C(=O)N[C@@H](CCC(N)=O)C(=O)N[C@@H](CCCNC(=N)N)C(=O)N[C@@H](CCCNC(=N)N)C(=O)N[C@@H](CCCNC(=N)N)C(=O)N1CCC[C@H]1C(=O)N1CCC[C@H]1C(=O)N[C@@H](CCC(N)=O)C(=O)NCCC(=O)N[C@@H](CCCNC(=N)N)C(=O)N[C@@H](CCCCN)C(=O)N[C@@H](CCCNC(=N)N)C(=O)N[C@@H](CO)C(=O)N[C@@H](CCCNC(=N)N)C(=O)N[C@@H](Cc1ccc(O)cc1)C(=O)N[C@@H](CC(=O)O)C(=O)N1CCC[C@H]1C(N)=O` [F11P19, GRKKRRQRRRPPQ-βA-RKRSRYDP] (H-GRKKRRQRRRPPQ[βAla]RKRSRYDP-NH2; N-terminus and C-terminus assumed), the IC50 came out at 336 µM.
Same read-out and setting: to `N=C(N)NCCC[C@H](NC(=O)CN)C(=O)N[C@@H](CCCCN)C(=O)N[C@@H](CCCCN)C(=O)N[C@@H](CCCNC(=N)N)C(=O)N[C@@H](CCCNC(=N)N)C(=O)N[C@@H](CCC(N)=O)C(=O)N[C@@H](CCCNC(=N)N)C(=O)N[C@@H](CCCNC(=N)N)C(=O)N[C@@H](CCCNC(=N)N)C(=O)N1CCC[C@H]1C(=O)N1CCC[C@H]1C(=O)N[C@@H](CCC(N)=O)C(=O)NCCC(=O)NCC(=O)N[C@@H](Cc1ccc(O)cc1)C(=O)N[C@@H](CCCNC(=N)N)C(=O)N[C@@H](Cc1ccc(O)cc1)C(=O)N[C@@H](CCCCN)C(=O)N[C@@H](CCCNC(=N)N)C(=O)N[C@@H](CC(=O)O)C(=O)N1CCC[C@H]1C(N)=O` [F11P20, GRKKRRQRRRPPQ-βA-GYRYKRDP] (H-GRKKRRQRRRPPQ[βAla]GYRYKRDP-NH2; N-terminus and C-terminus assumed) belongs 305 µM; to `CC(C)C[C@H](NC(=O)[C@H](CCCNC(=N)N)NC(=O)[C@H](CCCNC(=N)N)NC(=O)[C@H](CCCCN)NC(=O)[C@H](CCCCN)NC(=O)[C@@H](NC(=O)CCNC(=O)[C@H](CCC(N)=O)NC(=O)[C@@H]1CCCN1C(=O)[C@@H]1CCCN1C(=O)[C@H](CCCNC(=N)N)NC(=O)[C@H](CCCNC(=N)N)NC(=O)[C@H](CCCNC(=N)N)NC(=O)[C@H](CCC(N)=O)NC(=O)[C@H](CCCNC(=N)N)NC(=O)[C@H](CCCNC(=N)N)NC(=O)[C@H](CCCCN)NC(=O)[C@H](CCCCN)NC(=O)[C@H](CCCNC(=N)N)NC(=O)CN)C(C)C)C(=O)N[C@@H](CC(=O)O)C(=O)N1CCC[C@H]1C(N)=O` [F11P21, GRKKRRQRRRPPQ-βA-VKKRRLDP] (H-GRKKRRQRRRPPQ[βAla]VKKRRLDP-NH2; N-terminus and C-terminus assumed), 668 µM.

A further assay concerns the target T1, E7 oncoprotein of HPV-16 expressed in …. Briefly: cell-based or functional assay.
Details: not given
Consider B1, for which the “inhibition of CK2-mediated phosphorylation of HPV-16 E7 (in vitro phosphorylation reaction, GST-E7 substrate)” value was found to be 85%.
Same read-out and setting: to B2 belongs 87%.

The next assay deals with T2, CK2-mediated phosphorylation of the HPV-16 E7 oncoprotein (Human papillomavirus type 16, UniProt P03129).
T2 construct: Glutathione S-Transferase (GST); made in house; host or cells: Escherichia coli
Briefly: in vitro phosphorylation reaction, E7 oncoprotein (GST fusion) as substrate. Format: biochemical. The note with it: procedure of Example 2. How it is done:
The assay to measure the effect of these peptides on the CK2-mediated phosphorylation of the HPV-16 E7 oncoprotein, was based on an in vitro phosphorylation reaction, where the E7 oncoprotein of HPV-16 expressed in Escherichia coli was used as substratum. This oncoprotein was obtained as a fusion protein to Glutathione S-Transferase. The assay was performed according to the procedure previously described. (Perea S. E., et al., 2004, Cancer Res., 64: 7127-7129). The results are shown in FIG. 1, and indicate that the peptides identified as SEQ ID NO: 1-SEQ ID NO: 9 are capable of inhibiting CK2-mediated phosphorylation of the E7 protein of HPV-16.
For RKRSRYWP [D14P165], the phosphorylation inhibition was 85%.
The same measure, in the same setting: to RKRSWYWP [D15P106] belongs 82%; to RKRWRYWP [D15P105], 87%.
